Entries after “also recorded” stand apart in the source; their conditions may differ.
Test system: Aβ1-40 and Aβ1-42
Experiment: Aβ1-40 and Aβ1-42 ELISA in brain homogenate fractions and CSF of hAPP Tg mice
Type: in vivo
Protocol: iv) Treatment • Forty female hAPP transgenic mice were treated with either 0.1 mg/kg b.w./every two weeks or 10 mg/kg b.w./every three weeks of the test substance XG-102 (SEQ ID NO: 11) in two different dosages (n=12/group) or treated with the vehicle (n=12) s.c. once every three weeks over four months.
vi) Tissue Sampling • At the end of the treatment period, and following all behavioral testing, all remaining mice (n=28) were sacrificed. Therefore, all mice were sedated by standard inhalation anesthesia (Isofluran, Baxter) as described in SOP MET030. Cerebrospinal fluid (CSF) was obtained by blunt dissection and exposure of the foramen magnum. Upon exposure, a Pasteur pipette was inserted to the approximate depth of 0.3-1 mm into the foramen magnum. CSF was collected by suctioning and capillary action until flow fully ceases. Two aliquots of each sample were immediately frozen and kept at −80° C. until ready for further analysis with ELISA technique. After CSF sampling, each mouse was placed in dorsal recumbence, thorax was opened and a 26-gauge needle attached to a 1 cc syringe was inserted into the right cardiac ventricular chamber. Light suction was applied to the needle and blood was collected into EDTA and consequently used to obtain plasma. To get plasma, blood samples from each mouse were spun at 1,750 rpm (700 g) for 10 minutes in a centrifuge (GS-6R Beckman) using a rotor with swing buckets (GH—3.8 Beckman). Plasma was frozen and stored at −20° C. until further analysis. After blood sampling transgenic mice were intracardially perfused with 0.9% sodium chloride. Brains were rapidly removed the cerebellum was cut off. The right hemispheres of all mice were immersion fixed in freshly produced 4% Paraformaldehyde/PBS (pH 7.4) for one hour at room temperature. Thereafter brains were transferred to a 15% sucrose PBS solution for 24 hours to ensure cryoprotection. […]
vii) Determination of Aβ1-40 and Aβ1-42 • In four different brain homogenate fractions of each Tg mouse as well as in CSF samples the Aβ1-40 and Aβ1-42 levels were evaluated with ELISA technique. […]

CC(C)C[C@@H](NC(=O)[C@@H](Cc1ccccc1)NC(=O)[C@H]1CCCN1C(=O)[C@@H](CCC(N)=O)NC(=O)[C@H](NC(=O)[C@H]1CCCN1C(=O)[C@@H](CCCNC(=N)N)NC(=O)[C@@H](CO)NC(=O)[C@@H](CCC(N)=O)NC(=O)[C@H](N)CC(=O)O)C(C)C)C(=O)N[C@H](CC(N)=O)C(=O)N[C@H](CC(C)C)C(=O)N[C@@H](C(=O)N[C@@H](C(=O)N1CCC[C@@H]1C(=O)N[C@H](CCCNC(=N)N)C(=O)N[C@H](CCCCN)C(=O)N1CCC[C@@H]1C(=O)N[C@H](CCCNC(=N)N)C(=O)N1CCC[C@@H]1C(=O)N1CCC[C@@H]1C(=O)N[C@H](CCCNC(=N)N)C(=O)N[C@H](CCCNC(=N)N)C(=O)N[C@H](CCCNC(=N)N)C(=O)N[C@H](CCC(N)=O)C(=O)N[C@H](CCCNC(=N)N)C(=O)N[C@H](CCCNC(=N)N)C(=O)N[C@H](CCCCN)C(=O)N[C@H](CCCCN)C(=O)N[C@H](CCCNC(=N)N)C(=O)NCC(=O)O)[C@H](C)O)[C@H](C)O [XG-102]
brain homogenate Aβ1-40 levels (both dosages): did not affect brain homogenate Aβ1-40 levels
CSF Aβ1-40 and Aβ1-42 levels (both dosages, p<0.01 10 mg/kg, <0.05 low dosage): a significant decrease of Aβ1-40 and Aβ1-42 in CSF; also recorded: significantly decreased in CSF compared to vehicle group
Aβ1-42 level in Triton X-100 fraction (low dose 0.1 mg/kg, p<0.05 vs vehicle): a significant reduction compared to the vehicle group
